Measured values: US9388123B2, “LSD1-selective inhibitor having lysine structure” (KYOTO UNIVERSITY, priority 2012, dated 2016)
Where a name gives a salt, the structure may show the parent alone.

How the values were obtained:
[1] = target: T1, monoamine oxidase B (MAO-B) (Homo sapiens, UniProt P27338); assay: Monoamine oxidase inhibition test (MAO-Glo assay kit); format: biochemical; conditions: room temperature, 1 hour
T1 construct: purchased Sigma-Aldrich
T1 sequence (P27338 1-520): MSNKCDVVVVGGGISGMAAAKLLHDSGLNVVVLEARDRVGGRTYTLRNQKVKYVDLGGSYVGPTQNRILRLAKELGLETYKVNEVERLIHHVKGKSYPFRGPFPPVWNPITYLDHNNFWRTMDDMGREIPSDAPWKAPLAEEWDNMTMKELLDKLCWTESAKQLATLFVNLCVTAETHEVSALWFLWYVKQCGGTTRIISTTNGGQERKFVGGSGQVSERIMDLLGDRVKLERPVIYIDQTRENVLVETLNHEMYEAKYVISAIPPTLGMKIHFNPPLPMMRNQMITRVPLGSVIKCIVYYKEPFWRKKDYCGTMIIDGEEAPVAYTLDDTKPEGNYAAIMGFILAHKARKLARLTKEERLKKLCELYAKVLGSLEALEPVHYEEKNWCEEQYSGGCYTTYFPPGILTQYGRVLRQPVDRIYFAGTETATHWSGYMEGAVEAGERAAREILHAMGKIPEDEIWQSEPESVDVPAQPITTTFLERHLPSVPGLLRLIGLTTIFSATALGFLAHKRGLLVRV
Description: To the reaction liquid was added 50 μL of a luciferin detection reagent, and the mixture was subjected to a reaction at room temperature for 20 minutes.

[2] = tested on: bone marrow cells of normal mice; assay: Normal cell growth inhibition evaluation (colony forming ability in methylcellulose semi-solid medium); format: cell-based; conditions: 10 days culture, FIG. 1
Excerpt: In general, a semi-solid medium obtained by adding a cytokine involved in differentiation induction to a methylcellulose medium is used to evaluate a colony forming ability. Some of the bone marrow cells contain hematopoietic stem cells and precursor cells, which are sources of hematopoietic cells, and these cells can create a mass (called a colony) formed of several tens, several hundreds, and in some cases, several thousands of cells from a single cell on a semi-solid medium. The colony forming ability of the bone marrow cells may be evaluated by counting the number of the colonies. The colony forming ability in the semi-solid medium well reflects an actual supply ability and construction ability from the hematopoietic stem cells and precursor cells to the hematopoietic cells in vivo.
To 3 ml of MethoCult M3434 (methylcellulose-based semi-solid medium; StemCell Technologies; containing interleukin 3(IL-3), interleukin 6 (IL-6), erythropoietin (EPO), and stem cell factor (SCF)) were added 600,000 bone marrow cells of normal mice (suspended in 300 μl of IMDM medium), and the mixture was stirred well and plated at 1.1 ml per 3.5-cm culture dish. The cells were cultured under the conditions of 5% CO2 and 37° C. for 10 days in an incubator. A mass in which the number of cells was 50 or more was defined as a colony, and the number of colonies formed on each dish was counted.

U937 = assay: Leukemia cell growth inhibition evaluation (WST-8); format: cell-based; conditions: Homo sapiens, U-937; day 3 (72-hour culture); read-out: Human leukemia cell line GI50 (μM) U937
Excerpt: (§1) HL60, THP-1, K562, U937, KGla, HEL, and MDS-L were used as human leukemia cells. The cell lines are cell lines established from various subtypes such as acute myeloid leukemia, acute promyelocytic leukemia, acute monocytic leukemia, acute erythroid leukemia, and myelodysplastic syndromes, which progress to leukemia. Cells obtained by introducing leukemia fusion genes MLL/AF9, MLL/SEPT6, and MLL/ENL into the bone marrow of normal mice with a retrovirus so as to develop leukemia were used as murine leukemia cell lines.
(§2) This assay method involves, as a principle thereof, measuring an absorbance (a peak at from 450 nm to 490 nm) at the time of color development through a reaction of NADH, which is contained in the mitochondria of viable cells, and WST-8 to measure the amount of NADH. Specifically, the assay was performed by the following procedure.
(§3) The cells were plated at 50 μl, i.e., 5,000 cells per well in a 96-well microtiter plate. Next, a test compound dissolved in DMSO was mixed at various concentrations into the same medium, and 50 μl of each of the mixtures was added to each well. A medium was prepared so that the final concentration of the test compound was from 0 μM to 50 μM and so that the addition amount of DMSO was the same, and the cells were cultured in a CO2 incubator. On day 0 before the addition and on day 1, day 2, and day 3 after the addition, WST-8 reagent was added at 20 μl per well, and the cells were cultured for 1 hour in a CO2 incubator. After that, measurement was performed with ARVO X3 (manufactured by PerkinElmer).
(§4) Specifically, an absorbance at 450 nm was measured, an absorbance at 595 nm was measured in the same well, and the absorbance at 595 nm was subtracted from the absorbance at 450 nm to perform background correction for the well itself. Further, a well containing only a medium free of cells was subjected to the same measurement. A value in this case was also subtracted. Thus, the amount of viable cells was represented as a numerical value with correction of the influence of a medicament or a medium as well. Under a condition not containing the test compound (addition of only dimethyl sulfoxide), an exponential increase in number of viable cells on day 1, day 2, and day 3 in the stated order was confirmed.

MDS-L = assay: Leukemia cell growth inhibition evaluation (WST-8); format: cell-based; conditions: Homo sapiens; day 3 (72-hour culture); read-out: Human leukemia cell line GI50 (μM) MDS-L
Excerpt: as §1, §2, §3, §4

[3] = tested on: MLL/SEPT6 leukemia cell line; assay: Leukemia cell growth inhibition evaluation (WST-8); format: cell-based; conditions: Mus musculus; day 3 (72-hour culture); read-out: Mouse MLL-fusion leukemia cell line GI50 (μM) MLL/SEPT6
Excerpt: as §1, §2, §3, §4

HL60 = assay: Leukemia cell growth inhibition evaluation (WST-8); format: cell-based; conditions: Homo sapiens, HL-60; day 3 (72-hour culture); read-out: Human leukemia cell line GI50 (μM) HL60
Excerpt: as §1, §2, §3, §4

KG1a = assay: Leukemia cell growth inhibition evaluation (WST-8); format: cell-based; conditions: Homo sapiens, KG-1a; day 3 (72-hour culture); read-out: Human leukemia cell line GI50 (μM) KG1a
Excerpt: as §1, §2, §3, §4

HEL = assay: Leukemia cell growth inhibition evaluation (WST-8); format: cell-based; conditions: Homo sapiens, day 3 (72-hour culture), read-out: Human leukemia cell line GI50 (μM) HEL
Excerpt: as §1, §2, §3, §4

THP1 = assay: Leukemia cell growth inhibition evaluation (WST-8); format: cell-based; conditions: Homo sapiens, THP-1; day 3 (72-hour culture); read-out: Human leukemia cell line GI50 (μM) THP1
Excerpt: as §1, §2, §3, §4

[4] = tested on: MLL/AF9 leukemia cell line; assay: Leukemia cell growth inhibition evaluation (WST-8); format: cell-based; conditions: Mus musculus, day 3 (72-hour culture), read-out: Mouse MLL-fusion leukemia cell line GI50 (μM) MLL/AF9
Excerpt: as §1, §2, §3, §4

[5] = tested on: human leukemia cell lines; assay: Leukemia cell growth inhibition evaluation, summary in words; format: cell-based; conditions: Table 5
Excerpt: as §1, §2, §3, §4

[6] = tested on: murine leukemia cell lines; assay: as above; format: cell-based; conditions: Table 6
Excerpt: as §1, §2, §3, §4

[7] = at a concentration of up to 5 μM

SMILES	IC50 [1] [µM]	colony forming ability ([2]; at 10 μM)	colony forming ability [2, 7]	GI50 (U937) [µM]	GI50 (MDS-L) [µM]	GI50 [3] [µM]	GI50 (HL60) [µM]	GI50 (KG1a) [µM]	GI50 (HEL) [µM]	GI50 (THP1) [µM]	GI50 [4] [µM]	growth inhibitory / suppressing effect on the human leukemia cell lines (in words) [5]	growth inhibitory / suppressing effect on the murine leukemia cell lines (in words) [6]
O=C(N[C@@H](CCCCNC1CC1c1ccccc1)C(=O)NCc1ccccc1)c1ccc(-c2ccccc2)cc1 (stereo partly drawn) [Example 8, 2-[N-(4-Phenylbenzenecarbonyl)]amino-6-(trans-2-phenylcyclopropan-1-amino)-N-benzylhexanamide Hydrochloride]	> 100	remarkably inhibited	not inhibited	4.6	< 1.3	4 to 5	4 to 5	~6.3	< 1.3	5 to 6	< 2	higher growth suppressing effects on the human leukemia cell lines than Comparative Example 2	very high growth suppressing effects
O=C(N[C@@H](CCCCNC1CC1c1ccccc1)C(=O)NCc1cccc(C(F)(F)F)c1)c1ccc(-c2ccccc2)cc1 (stereo partly drawn) [Example 19, 2-[N-(4-Phenylbenzenecarbonyl)]amino-6-(trans-2-phenylcyclopropan-1-amino)-N-(3-trifluoromethylbenzyl)hexanamide Hydrochloride]	> 100	remarkably inhibited	not inhibited	10 to 20	< 1.3	2.5 to 5	2.5 to 5	5 to 10	~5	5 to 10	< 1.25	higher growth suppressing effects on the human leukemia cell lines than Comparative Example 2	very high growth suppressing effects
